According to patent publication US12077503B2, “Substituted cyclic amides and their use as herbicides” (FMC CORPORATION, priority 2015, dated 2024):

Tests used:
Assay type in all cases: in vivo
[1] = test system: ryegrass, Italian (Italian ryegrass, Lolium multiflorum); assay: Test A postemergence
Method in brief: (§1)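 Treatment is preemergence as a directed soil spray after planting, or postemergence at the one- to two-leaf stage, with test chemical in a non-phytotoxic solvent mixture plus surfactant. Plants stay in the greenhouse about 10 d before visual injury scoring on a 0 to 100 scale versus untreated controls.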

[2] = test system: blackgrass (Alopecurus myosuroides); assay: Test A postemergence
Method in brief: as §1

[3] = test system: Galium (catchweed bedstraw, Galium aparine); assay: Test A postemergence
Method in brief: as §1

[4] = test system: ragweed (common ragweed, Ambrosia elatior); assay: Test A postemergence
Method in brief: as §1

[5] = test system: barnyardgrass (Echinochloa crus-galli); assay: Test A postemergence
Method in brief: as §1

[6] = test system: pigweed (Amaranthus retroflexus); assay: Test A postemergence
Method in brief: as §1

[7] = test system: wheat (Triticum aestivum); assay: Test A postemergence
Method in brief: as §1

Kochia (Kochia scoparia) [8] = assay: Test A postemergence
Method in brief: as §1

corn (Zea mays) = assay: Test A postemergence
Method in brief: as §1

[9] = test system: giant foxtail (Setaria faberii); assay: Test A postemergence
Method in brief: as §1

[10] = test system: sedge, umbrella (small-flower umbrella sedge, Cyperus difformis); assay: Test B flooded paddy test; conditions: Flood, 250 g ai/ha; 0 to 100 scale where 0 is no effect and 100 is complete control; 13 to 15 d
Method in brief: (§2)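 Response scored visually against untreated controls, 0 = no effect and 100 = complete control, 13–15 d after treatment in the greenhouse. Compounds added to paddy water held 3 cm above soil surface. Treatment given at 2-leaf stage.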

[11] = test system: ducksalad (Heteranthera limosa); assay: Test B flooded paddy test; conditions: Flood, 250 g ai/ha; 0 to 100 scale where 0 is no effect and 100 is complete control; 13 to 15 d
Method in brief: as §2

rice (Oryra sativa) = assay: Test B flooded paddy test; conditions: Flood, 250 g ai/ha; 0 to 100 scale where 0 is no effect and 100 is complete control; 13 to 15 d
Method in brief: as §2

[12] = test system: barnyardgrass (Echinochloa crus-galli); assay: Test B flooded paddy test; conditions: Flood, 250 g ai/ha; 0 to 100 scale where 0 is no effect and 100 is complete control; 13 to 15 d
Method in brief: as §2

[13] = test system: ryegrass, Italian (Italian ryegrass, Lolium multiflorum); assay: Test A preemergence; conditions: for Plant response rating, Ryegrass, Italian: 125 g ai/ha, preemergence, 0 to 100 scale (0 no effect, 100 complete control)
Method in brief: as §1

[14] = test system: ragweed (common ragweed, Ambrosia elatior); assay: Test A preemergence; conditions: for Plant response rating, Ragweed: 125 g ai/ha, preemergence, 0 to 100 scale (0 no effect, 100 complete control)
Method in brief: as §1

[15] = test system: barnyardgrass (Echinochloa crus-galli); assay: Test A preemergence; conditions: for Plant response rating, Barnyardgrass: 125 g ai/ha, preemergence, 0 to 100 scale (0 no effect, 100 complete control)
Method in brief: as §1

[16] = test system: pigweed (Amaranthus retroflexus); assay: Test A preemergence; conditions: for Plant response rating, Pigweed: 125 g ai/ha, preemergence, 0 to 100 scale (0 no effect, 100 complete control)
Kochia (Kochia scoparia) [17] = assay: Test A preemergence; conditions: for Plant response rating, Kochia: 125 g ai/ha, preemergence, 0 to 100 scale (0 no effect, 100 complete control)
Method in brief: as §1

[18] = test system: giant foxtail (Setaria faberii); assay: Test A preemergence; conditions: for Plant response rating, Foxtail, Giant: 125 g ai/ha, preemergence, 0 to 100 scale (0 no effect, 100 complete control)
Method in brief: as §1

[19] = 500 g ai/ha, postemergence, 0 to 100 scale, 0 no effect, 100 complete control
[20] = Postemergence, 125 g ai/ha, visual injury, 0 to 100 scale (0 no effect, 100 complete control), approx. 10 d
[21] = Preemergence, 500 g ai/ha, 0 is no effect, 100 is complete control
[22] = 125 g ai/ha, postemergence, visual injury rating on 0 to 100 scale (0 no effect, 100 complete control), approx. 10 d
[23] = Preemergence, 500 g ai/ha, visual injury approx. 10 d

SMILES	Plant response rating, Ryegrass, Italian [1, 19]	Plant response rating, Blackgrass [2, 19]	Plant response rating, Galium [3, 19]	Plant response rating, Ragweed [4, 19]	Plant response rating, Barnyardgrass [5, 19]	Plant response rating, Pigweed [6, 19]	Plant response rating, Wheat [7, 19]	Plant response rating, Kochia (Kochia (Kochia scoparia) [8]; [19])	Plant response rating, Corn (corn (Zea mays); [19])	Plant response rating, Foxtail, Giant [9, 19]	Plant response rating, Sedge, Umbrella [10]	Plant response rating, Ducksalad [11]	Plant response rating, Rice (rice (Oryra sativa))	Plant response rating, Barnyardgrass [12]	Plant response rating, Ryegrass, Italian [13]	Plant response rating, Ragweed [14]	Plant response rating, Barnyardgrass [15]	Plant response rating, Pigweed [16]	Plant response rating, Kochia (Kochia (Kochia scoparia) [17])	Plant response rating, Foxtail, Giant [18]	also measured
O=C1NCC(c2ccccc2-c2ccccc2)C1C(=O)Nc1ccc(F)c(F)c1F (racemic) [Compound 382]	0	0	0	0	20	0	0	0	0	20	0	0	0	0	0	0	0	0	0	0	Plant response rating, Ryegrass, Italian [1, 20]: 0; Plant response rating, Blackgrass [2, 20]: 0; Plant response rating, Galium [3, 20]: 0; Plant response rating, Ragweed [4, 20]: 0; Plant response rating, Barnyardgrass [5, 20]: 0; Plant response rating, Pigweed [6, 20]: 0; Plant response rating, Wheat [7, 20]: 0; Plant response rating, Kochia (Kochia (Kochia scoparia) [8]; [20]): 0; Plant response rating, Corn (corn (Zea mays); [20]): 0; Plant response rating, Foxtail, Giant [9, 20]: 0; Ryegrass, Italian plant response rating (0 to 100 scale) [13, 21]: 0; Ragweed plant response rating (0 to 100 scale) [14, 21]: 0; Barnyardgrass plant response rating (0 to 100 scale) [15, 21]: 50; Pigweed plant response rating (0 to 100 scale) [16, 21]: 0; Kochia plant response rating (0 to 100 scale) (Kochia (Kochia scoparia) [17]; [21]): 0; Foxtail, Giant plant response rating (0 to 100 scale) [18, 21]: 30
CC(=O)Oc1cccc(C2CNC(=O)C2C(=O)Nc2cccc(F)c2F)c1 (stereo not drawn) [Compound 432]	20	0	0	0	30	0	0	0	0	30	0	0	15	20	0	0	30	0	0	0	Ryegrass, Italian plant response rating [1, 22]: 0; Blackgrass plant response rating [2, 22]: 0; Galium plant response rating [3, 22]: 0; Ragweed plant response rating [4, 22]: 0; Barnyardgrass plant response rating [5, 22]: 20; Pigweed plant response rating [6, 22]: 0; Wheat plant response rating [7, 22]: 0; Kochia plant response rating (Kochia (Kochia scoparia) [8]; [22]): 0; Corn plant response rating (corn (Zea mays); [22]): 0; Foxtail, Giant plant response rating [9, 22]: 40; Ryegrass, Italian plant response rating (0 to 100 scale, 0 is no effect, 100 is complete control) [13, 23]: 0; Ragweed plant response rating (0 to 100 scale, 0 is no effect, 100 is complete control) [14, 23]: 0; Barnyardgrass plant response rating (0 to 100 scale, 0 is no effect, 100 is complete control) [15, 23]: 40; Pigweed plant response rating (0 to 100 scale, 0 is no effect, 100 is complete control) [16, 23]: 0; Kochia plant response rating (0 to 100 scale, 0 is no effect, 100 is complete control) (Kochia (Kochia scoparia) [17]; [23]): 0; Foxtail, Giant plant response rating (0 to 100 scale, 0 is no effect, 100 is complete control) [18, 23]: 0
